Results on 24 molecules are retold here after US6875761B2 (Eisai Co., Ltd., priority 1997, dated 2005).

The melting point is the temperature, or range, at which the solid turns liquid.

Counter-ions that a name gives are not always drawn.

As for `CCN1CCN(c2nc(-c3ccc(CC(C)CO)cc3)cc3ccccc23)CC1` (stereo not drawn) (as salt: oxalate) [Example 386, 1-(4-Ethylpiperazin-1-yl)-3-[4-(3-Hydroxy-2-Methylpropyl)Phenyl]Isoquinoline Oxalate], the melting point lay within 195 to 196 °C.
For `CCN1CCN(c2nc(C(O)c3cccnc3)cc3ccccc23)CC1` (stereo not drawn) (as salt: oxalate) [Example 413, 1-(4-ethylpiperazin-1-yl)-3-[(3-pyridyl)hydroxymethyl]isoquinoline] the value was 174 to 175 °C; for `CCN1CCN(c2nc(-c3ccccc3O)cc3ccccc23)CC1.Cl`, 228 to 230 °C.
To `CCN1CCN(c2nc(-c3ccc(OCC(C)(C)O)cc3)cc3cccnc23)CC1` (as salt: hydrochloride) [Example 250, 8-(1-ethylpiperazin-4-yl)-6-[4-(2-hydroxy-2-methylpropoxy)phenyl]-1,7-naphthyridine Dihydrochloride] belongs 127 to 132 °C; to `CCN1CCN(c2nc(-c3ccc(OC)cc3)cc3ccoc23)CC1` (as salt: hydrochloride) [Example 467, 7-(4-ethylpiperazin-1-yl)-5-(4-methoxyphenyl)furo[2,3-c]pyridine dihydrochloride], 127 to 128 °C.
For `CC(C)(O)COc1ccc(-c2cc3sccc3c(N3CCN(CCc4ccccc4)CC3)n2)cc1` (as salt: hydrochloride) [Example 297, 6-[4-(2-methyl-2-hydroxypropoxy)phenyl]-4-[4-(2-phenylethyl)piperazin-1-yl]thieno[3,2-c]pyridine] the value was 140 to 142 °C; for `CCN1CCN(c2nc(-c3ccc(C(O)C(C)(C)CO)cc3)cc3ccccc23)CC1` (stereo not drawn) (as salt: hydrochloride) [Example 391, 1-(4-Ethylpiperazin-1-yl)-3-[4-(1,3-Dihydroxy-2,2-Dimethylpropyl)Phenyl]Isoquinoline Dihydrochloride], 150.5 to 151.5 °C; for `CCN1CCN(c2nc(-c3ccc(OCCCO)cc3)cc3ccsc23)CC1` (as salt: hydrochloride) [Example 434, 7-(4-ethylpiperazin-1-yl)-5-[4-(3-hydroxypropoxy)phenyl]thieno[2,3-c]pyridine dihydrochloride], 126 to 127 °C.
Molecule `CCN1CCN(c2nc(-c3cc(F)c(OCCO)c(F)c3)cc3ccccc23)CC1` (as salt: hydrochloride) [Example 370, 1-(4-ethylpiperazin-1-yl)-3-[3,5-difluoro-4-(2-hydroxyethoxy)phenyl]isoquinoline] displayed a melting point of 112.5 to 114 °C.
Molecule `CCN1CCN(c2nc(-c3ccc(CCC(C)O)cc3)cc3sccc23)CC1` (stereo not drawn) (as salt: hydrochloride) [Example 285, 4-(1-ethylpiperazin-4-yl)-6-[4-(3-hydroxybutyl)phenyl]thieno[3,2-c]pyridine hydrochloride] yielded a melting point of 122 to 124 °C.
For `CCN1CCN(c2nc(-c3ccc(C4CCOCC4)cc3)cc3ccccc23)CC1` (as salt: hydrochloride) [Example 83, 3-[4-(Tetrahydropyran-4-yl)phenyl]-1-(4-ethylpiperazin-1-yl)isoquinoline Hydrochloride] the value was 148 to 150 °C; for `CCCN1CCN(c2nc(-c3ccc(OCCO)cc3)cc3sccc23)CC1` (as salt: hydrochloride) [Example 293, 4-(4-propylpiperazin-1-yl)-6-[4-(2-hydroxyethoxy)phenyl]thieno[3,2-c]pyridine], 128 to 130 °C; for `CCN1CCN(c2nc(-c3ccc(N4CCSCC4)nc3)cc3ccsc23)CC1` (as salt: hydrochloride) [Example 264, 5-[2-(4-thiomorpholinyl)pyridin-5-yl]-7-(4-ethylpiperazine-1-yl)thieno[2,3-c]pyridine Hydrochloride], 201 to 203 °C.
To `CCN1CCN(c2nc(-c3ccc(C(O)C4CCCC4)cc3)cc3ccsc23)CC1` (stereo not drawn) (as salt: hydrochloride) [Example 458, 7-(4-ethylpiperazin-1-yl)-5-[4-(cyclopentylhydroxymethyl)phenyl]thieno[2,3-c]pyridine dihydrochloride] belongs 128 to 129 °C; to `CCN1CCN(c2nc(-c3ccc(OCCOC)nc3)cc3ccsc23)CC1` (as salt: hydrochloride) [Example 269, 5-[2-(2-methoxyethoxy)pyridin-5-yl]-7-(4-ethylpiperazin-1-yl)-thieno[2,3-c]pyridine hydrochloride], 116 to 118 °C; to `CCN1CCN(c2nc(-c3ccc(CCO)cc3)cc3ccccc23)CC1` (as salt: hydrochloride) [Example 351, 1-(4-ethylpiperazin-1-yl)-3-[4-(2-hydroxyethyl)phenyl]isoquinoline dihydrochloride], 134 to 136 °C.
On to `CCN1CCN(c2nc(-c3ccc(S(=O)(=O)CCCF)cc3)cc3ccccc23)CC1` (as salt: hydrochloride) [Example 355, 1-(4-ethylpiperazin-1-yl)-3-[4-(3-fluoropropyl)sulfonylphenyl]isoquinoline dihydrochloride], for which the melting point is 224 to 225 °C (dec.).
For `CCN1CCN(c2nc(-c3ccc(OCCOC)cc3)cc3ccccc23)CC1` (as salt: hydrochloride) [Example 42, 1-(4-ethylpiperazin-1-yl)-3-[4-(2-methoxyethoxy)phenyl]isoquinoline dihydrochloride] the value was 184.5 to 185 °C (dec.).
To `CCN1CCN(c2nc(C#Cc3ccccn3)cc3ccccc23)CC1` (as salt: oxalate) [Example 179, 1-(1-Ethylpiperazin-4-Yl)-3-(2-Pyridyl)Ethynylisoquinoline Oxalate] belongs 148 to 154 °C; to `CCN1CCN(c2nc(-c3cc(OC)ccn3)cc3ccccc23)CC1` (as salt: hydrochloride) [Example 335, 1-(4-ethylpiperazin-1-yl)-3-(4-methoxypyridin-2-yl)isoquinoline dihydrochloride], 172 to 173 °C (dec.); to `CCN1CCN(c2nc(-c3cccc(OC)c3)cc3ccccc23)CC1` (as salt: hydrochloride) [Example 9, 1-(4-ethylpiperazin-1-yl)-3-(3-methoxyphenyl)isoquinone Dihydrochloride], 108 to 110 °C.
As for `CCN1CCN(c2nc(-c3ccc(S(=O)(=O)NCCO)cc3)cc3ccccc23)CC1` (as salt: hydrochloride) [Example 347, 1-(4-ethylpiperazin-1-yl)-3-{4-[N-(2-hydroxyethyl)sulfamoyl]phenyl}isoquinoline dihydrochloride], the melting point was 136 to 138.5 °C.
As to `CCNC(=O)c1ccc(-c2cc3ccsc3c(N3CCN(CC)CC3)n2)cc1` (as salt: hydrochloride) [Example 448, 7-(4-ethylpiperazin-1-yl)-5-[4-(N-ethylcarbamoyl)phenyl]thieno[2,3-c]pyridine dihydrochloride], the melting point lay in the range of 142 to 143 °C.
For `CCN1CCN(c2nc(C3=CCCc4ccc(OC)cc43)cc3ccccc23)CC1` (as salt: oxalate) the value was 150 to 153 °C.
